Like-named read-outs stand apart in the source and are kept apart here. Where only a bound is given, the exact number is not on record here.

The source of these data is patent US11274124B2, “Tubulysin analogues as anticancer agents and payloads for antibody-drug conjugates and methods of treatment therewith” (William Marsh Rice University, priority 2017, dated 2022).

Series [1] concerns HEK 293T (human embryonic kidney cancer cell line). The experiment in a line: In vitro cytotoxicity assay (CellTiter-Glo, 72 hours), HEK 293T. Type of series: cell-based. The conditions noted are these: Homo sapiens, HEK-293T, 72 h. Background: ATP-based viability assays read luminescence as a measure of living cells.
Series [2] deals with MES SA, MES SA DX and HEK 293T cells. Description: In vitro cytotoxicity assay, structure-activity discussion over the cell lines tested. The conditions noted are these: refers to Tables 2 and 3.
Series [3] has as its system MES SA (uterine sarcoma cell line). The experiment in a line: In vitro cytotoxicity assay (CellTiter-Glo, 72 hours), MES SA. Type of series: cell-based. To be noted: Homo sapiens, MES-SA, 72 h.
Series [4] relates to MES SA DX (MES SA cell line with marked multi-drug resistance). The experiment in a line: In vitro cytotoxicity assay (CellTiter-Glo, 72 hours), MES SA DX. To be noted: Homo sapiens, MES-SA, 72 h.
Setting [5] is: read-out: HEK 293T, IC50 Value in nM.
The mark [6] stands for this setting: read-out: MES SA, IC50 Value in nM.
Setting [7] is: read-out: MES SA DX, IC50 Value in nM.

In the case of `CC(=O)O[C@H](C[C@H](C(C)C)N(C)C(=O)[C@@H](NC(=O)[C@H]1CCCCN1C)C(C)C)c1nc(C(=O)N[C@@H](Cc2ccccc2)C[C@H](C)C(=O)O)c(C(C)C)s1` [Tb73, (2S,4R)-4-[({2-[(1R,3R)-1-Acetoxy-4-methyl-3-{methyl[(2S)-3-methyl-2-({[(2R)-1-methylpiperidin-2-yl]carbonyl}amino)butanoyl]amino}pentyl]-5-isopropyl-1,3-thiazol-4-yl}carbonyl)amino]-2-methyl-5-phenylpentanoic acid], the IC50 (as a rule, the concentration at which inhibition is half-maximal) in series [1] (read-out: HEK 293T, IC50) was determined as 0.16 nM; in series [1] (setting [5]), 0.16 nM; in series [3] (read-out: MES SA, IC50) it was 1.28 nM; in series [3] (setting [6]), 1.28 nM; in series [4] (read-out: MES SA DX, IC50) it was 44.7 nM; in series [4] (setting [7]), 44.7 nM. Besides, in series [2], the “cytotoxicity potency (in words, structure-activity discussion)” value (shortened to “cytotoxicity potency”) is “significant loss of potency”.

Consider `CC[C@H](C)[C@H](NC(=O)[C@H]1CCCCN1C)C(=O)N(C)[C@H](CCc1nc(C(=O)N[C@@H](Cc2ccccc2)C[C@H](C)C(=O)O)cs1)C(C)C` [PTb-D43, pretubulysin D, reference compound], for which the “cytotoxicity potency” value in series [2] is listed as “significant reduction in potency”.

For the molecule `CC[C@H](C)[C@H](NC(=O)[C@H]1CCCCN1C)C(=O)N(C)[C@H](CCc1nc(C(=O)N[C@@H](Cc2ccccc2)C[C@H](C)C(=O)OC)cs1)C(C)C` [PTb-D42], the “cytotoxicity potency” value in series [2] is on record as “significant reduction in potency”.

Regarding `COC(=O)[C@@H](C)C[C@H](Cc1ccccc1)NC(=O)c1csc([C@@H](C[C@H](C(C)C)N(C)C(=O)[C@H](C)NC(=O)[C@H]2CCCCN2C)OC(C)=O)n1` [Tb89, Methyl (2S,4R)-4-[({2-[(1R,3R)-1-acetoxy-4-methyl-3-{methyl[(2S)-2-({[(2R)-1-methylpiperidin-2-yl]carbonyl}amino)propanoyl]amino}pentyl]-1,3-thiazol-4-yl}carbonyl)amino]-2-methyl-5-phenylpentanoate], the IC50 in series [1] (setting [5]), in series [3] (setting [6]) and in series [4] (setting [7]) was > 1000 nM in each case.

`CCOC(=O)[C@@H](C)C[C@H](Cc1ccccc1)NC(=O)c1csc([C@@H](C[C@H](C(C)C)N(C)C(=O)[C@@H](NC(=O)[C@H]2C[C@H](O)CCN2C)C(C)C)OC(C)=O)n1` [Tb76, Ethyl (2S,4R)-4-[({2-[(1R,3R)-1-acetoxy-3-{[(2S)-2-({[(2R,4R)-4-hydroxy-1-methylpiperidin-2-yl]-carbonyl}amino)-3-methylbutanoyl](methyl)amino}-4-methylpentyl]-1,3-thiazol-4-yl}carbonyl)-amino]-2-methyl-5-phenylpentanoate]: the IC50 in series [1] (setting [5]) is 1.37 nM; in series [3] (setting [6]), 4.88 nM; in series [4] (setting [7]), > 2500 nM.

As to `COC(=O)CC12CC(NC(=O)c3csc([C@@H](C[C@H](C(C)C)N(C)C(=O)[C@@H](NC(=O)[C@H]4CCCCN4C)C(C)C)OC(C)=O)n3)(C1)C2` [Tb103, Methyl (3-{[(2-{1-acetoxy-4-methyl-3-[methyl(3-methyl-2-{[(1-methylpiperidin-2-yl)carbonyl]amino}-butanoyl)amino]pentyl}-1,3-thiazol-4-yl)carbonyl]amino}bicyclo[11.1.]pent-1-yl)acetate], the IC50 in series [1] (setting [5]) was determined as 1.79 nM; in series [3] (setting [6]), 2.74 nM; in series [4] (setting [7]) it was 22.6 nM.

Consider `COC(=O)[C@@H](C)C[C@H](Cc1ccccc1)NC(=O)c1csc([C@@H](C[C@H](C(C)C)N(C)C(=O)[C@H](NC(=O)[C@H]2CCCN2C)C(C(F)(F)F)C(F)(F)F)OC(C)=O)n1` [Tb86, Methyl (2S,4R)-4-[({2-[(1R,3R)-1-acetoxy-4-methyl-3-{methyl[(2R)-4,4,4-trifluoro-2-({[(2R)-1-meth-ylpyrrolidin-2-yl]carbonyl}amino)-3-(trifluoromethyl)butanoyl]amino}pentyl]-1,3-thiazol-4-yl}car-bonyl)amino]-2-methyl-5-phenylpentanoate], for which the concentration for half-maximal inhibition (IC50) in series [1] (setting [5]), in series [3] (setting [6]) and in series [4] (setting [7]) was > 1000 nM throughout.

Take `CC(=O)O[C@H](C[C@H](C(C)C)N(C)C(=O)[C@@H](NC(=O)[C@H]1CCCCN1C)C(C)C)c1nc(C(=O)N[C@@H](Cc2ccccc2)CC2C(=O)OC(C)(C)OC2=O)cs1` [Tb114, 1-(4-{[1-(2,2-Dimethyl-4,6-dioxo-1,3-dioxan-5-yl)-3-phenylpropan-2-yl]carbamoyl}-1,3-thiazol-2-yl)-4-methyl-3-[methyl(3-methyl-2-{[(1-methylpiperidin-2-yl)carbonyl]amino}butanoyl)amino]-pentyl acetate]: the half-maximal inhibitory concentration (IC50) in series [1] (setting [5]) is 0.524 nM; in series [3] (setting [6]), 1.23 nM; in series [4] (setting [7]), > 400 nM.

As for `CC(C)[C@@H](C[C@@H](O)c1nc(C(=O)N[C@@H](Cc2ccccc2)C[C@H](C)C(=O)O)cs1)N(C)C(=O)[C@H](CC(F)(F)F)NC(=O)[C@H]1CCCN1C` [Tb84, (2S,4R)-4-[({2-[(1R,3R)-1-Hydroxy-4-methyl-3-{methyl[(2S)-4,4,4-trifluoro-2-({[(2R)-1-methyl-pyrrolidin-2-yl]carbonyl}amino)butanoyl]amino}pentyl]-1,3-thiazol-4-yl}carbonyl)amino]-2-meth-yl-5-phenylpentanoic acid], the IC50 in series [1] (setting [5]), in series [3] (setting [6]) and in series [4] (setting [7]) was > 1000 nM each time.

Take `CC(=O)O[C@H](C[C@H](C(C)C)N(C)C(=O)[C@H](C)NC(=O)[C@H]1CCCCN1C)c1nc(C(=O)N[C@@H](Cc2ccccc2)C[C@H](C)C(=O)O)cs1` [Tb91, (2S,4R)-4-[({2-[(1R,3R)-1-Acetoxy-4-methyl-3-{methyl[(2S)-2-({[(2R)-1-methylpiperidin-2-yl]car-bonyl}amino)propanoyl]amino}pentyl]-1,3-thiazol-4-yl}carbonyl)amino]-2-methyl-5-phenylpentanoic acid]: the IC50 in series [1] (setting [5]), in series [3] (setting [6]) and in series [4] (setting [7]) was > 1000 nM each time.

Regarding `CC(=O)O[C@H](C[C@H](C(C)C)N(C)C(=O)[C@H](C)NC(=O)[C@H]1CCCN1C)c1nc(C(=O)N[C@@H](Cc2ccccc2)C[C@H](C)C(=O)O)cs1` [Tb92, (2S,4R)-4-[({2-[(1R,3R)-1-Acetoxy-4-methyl-3-{methyl[(2S)-2-({[(2R)-1-methylpyrrolidin-2-yl]car-bonyl}amino)propanoyl]amino}pentyl]-1,3-thiazol-4-yl}carbonyl)amino]-2-methyl-5-phenylpentanoic acid], the IC50 in series [1] (setting [5]), in series [3] (setting [6]) and in series [4] (setting [7]) was > 1000 nM in each case.

Turning to `CCOC(=O)[C@@H](C)CC(Cc1ccccc1)NC(=O)c1nc([C@@H](C[C@H](C(C)C)N(C)C(=O)[C@@H](NC(=O)[C@H]2CCCCN2C)C(C)C)OC(C)=O)sc1CCOCc1ccccc1` (stereo in doubt) [Tb110, Ethyl (2S,4S)-4-[({2-[(1R,3R)-1-acetoxy-4-methyl-3-{methyl[(2S)-3-methyl-2-{[(1-methylpiperidin-2-yl)carbonyl]amino}butanoyl]amino}pentyl]-5-[2-(benzyloxy)ethyl]-1,3-thiazol-4-yl}carbonyl)-amino]-2-methyl-5-phenylpentanoate], the IC50 in series [1] (setting [5]) was 1.87 nM; in series [3] (setting [6]), 3.09 nM; in series [4] (setting [7]), > 400 nM.
